{
  "source": "patent US20250143933A1",
  "about": "“ENDOSCOPIC, PERCUTANEOUS AND OTHER METHODS FOR DISSOLUTION OF PANCREATIC NECROSIS” (The Johns Hopkins University, priority 2021, published 2025)",
  "key": {"[1]": {"conditions": "cited from earlier work"}, "[2]": {"conditions": "concentrations higher than 30%; cited from earlier work"}, "[3]": {"conditions": "previous attempts, literature; cited from earlier work"}, "[4]": {"test": "Ex vivo dissolution of solid WON debris by candidate debridement compounds", "design": "species or system human", "method": "To perform preliminary proof-of-concept testing, solid WON debris was collected from seven patients undergoing endoscopic necrosectomy. […] Several candidate compounds that might be suitable, alone or in combination, for WON debris dissolution were identified. The candidate debridement compounds were tested on ex vivo samples to assess their capacity for dissolving WON debris."}},
  "data": [
    {"molecule": "[O][Cl+][O-]", "note": "[Chlorine dioxide, reference compound]", "values": [
      {"measurement": "Effect compared to 5.8% NaOCl", "setting": "[1]; chlorine dioxide 13.8%", "value": "shown to be similar"}
    ]},
    {"molecule": "OO", "note": "[Hydrogen peroxide, reference compound]", "values": [
      {"measurement": "Toxicity (local damage)", "setting": "[2]", "value": "shown to be toxic"},
      {"measurement": "Success as chemical dissolution agent to aid endoscopic necrosectomy", "setting": "[3]", "value": "minimal success"}
    ]},
    {"molecule": "OCl", "note": "[NaOCl, Sodium hypochlorite]", "values": [
      {"measurement": "Solvent properties in WON samples", "setting": "[4]; ex vivo, concentration of 5% (FIG. 4)", "value": "excellent solvent properties"},
      {"measurement": "Time to breakdown of human pancreas necrosis debris", "setting": "[4]; petri dish, dilute sodium hypochlorite 2.5% (FIG. 4)", "value": "within minutes"},
      {"measurement": "Pulp dissolution", "setting": "[1]; 8.25% NaOCl, dental surgery studies (Cullen et al., 2015)", "value": "rapid pulp dissolution"}
    ]},
    {"molecule": "CC(C)=O", "note": "[acetone, reference compound]", "values": [
      {"measurement": "Effect on WON debris (dissolution)", "setting": "[4]; ex vivo samples from patients undergoing endoscopic necrosectomy, lipophilic solvent", "value": "minimal to no effect"}
    ]},
    {"molecule": "streptokinase: previously tried chemical dissolution agent to aid endoscopic necrosectomy", "values": [
      {"measurement": "Success as chemical dissolution agent to aid endoscopic necrosectomy", "setting": "[3]", "value": "minimal success"}
    ]},
    {"molecule": "tissue plasminogen activator: previously tried chemical dissolution agent to aid endoscopic necrosectomy", "values": [
      {"measurement": "Success as chemical dissolution agent to aid endoscopic necrosectomy", "setting": "[3]", "value": "minimal success"}
    ]}
  ]
}
